Values of other authors, collected in patent US20090258897A1, “Substituted benzimidazoles” (Auspex Pharmaceuticals, Inc., priority 2008, published 2009).

Target: T1, gastric H^+, K^+-ATPase (Homo sapiens, UniProt P20648)
T1 construct: host or cells: healthy volunteers (in vivo, endogenous gastric enzyme)

[1] = healthy volunteers, even after stoppage of the drug

T1 sequence (P20648 whole entry): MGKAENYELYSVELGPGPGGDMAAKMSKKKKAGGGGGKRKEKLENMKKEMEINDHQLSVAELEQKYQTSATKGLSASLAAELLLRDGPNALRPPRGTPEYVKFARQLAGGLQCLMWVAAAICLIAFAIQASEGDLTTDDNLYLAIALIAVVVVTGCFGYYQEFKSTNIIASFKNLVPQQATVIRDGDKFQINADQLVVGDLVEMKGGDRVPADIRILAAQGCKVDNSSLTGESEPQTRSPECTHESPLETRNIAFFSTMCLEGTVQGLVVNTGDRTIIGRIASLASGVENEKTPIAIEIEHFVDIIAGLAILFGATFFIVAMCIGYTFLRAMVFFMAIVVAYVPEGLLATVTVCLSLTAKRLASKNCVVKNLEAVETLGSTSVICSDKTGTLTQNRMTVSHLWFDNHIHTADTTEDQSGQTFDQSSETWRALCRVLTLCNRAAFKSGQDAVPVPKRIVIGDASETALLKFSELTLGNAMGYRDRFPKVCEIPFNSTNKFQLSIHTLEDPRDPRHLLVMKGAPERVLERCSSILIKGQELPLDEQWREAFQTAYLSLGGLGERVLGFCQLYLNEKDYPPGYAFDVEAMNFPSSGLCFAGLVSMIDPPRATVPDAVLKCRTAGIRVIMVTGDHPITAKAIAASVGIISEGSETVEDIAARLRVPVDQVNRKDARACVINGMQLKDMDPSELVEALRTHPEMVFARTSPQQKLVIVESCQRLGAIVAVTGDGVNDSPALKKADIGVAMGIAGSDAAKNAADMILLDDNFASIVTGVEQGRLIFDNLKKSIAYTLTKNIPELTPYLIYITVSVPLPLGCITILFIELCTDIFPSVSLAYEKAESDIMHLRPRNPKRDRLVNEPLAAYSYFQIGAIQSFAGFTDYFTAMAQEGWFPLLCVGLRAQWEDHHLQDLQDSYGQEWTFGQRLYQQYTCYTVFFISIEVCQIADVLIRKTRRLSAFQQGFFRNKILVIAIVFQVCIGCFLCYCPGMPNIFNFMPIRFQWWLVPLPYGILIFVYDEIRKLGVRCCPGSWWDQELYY
T1 sequence (P51164 whole entry partner): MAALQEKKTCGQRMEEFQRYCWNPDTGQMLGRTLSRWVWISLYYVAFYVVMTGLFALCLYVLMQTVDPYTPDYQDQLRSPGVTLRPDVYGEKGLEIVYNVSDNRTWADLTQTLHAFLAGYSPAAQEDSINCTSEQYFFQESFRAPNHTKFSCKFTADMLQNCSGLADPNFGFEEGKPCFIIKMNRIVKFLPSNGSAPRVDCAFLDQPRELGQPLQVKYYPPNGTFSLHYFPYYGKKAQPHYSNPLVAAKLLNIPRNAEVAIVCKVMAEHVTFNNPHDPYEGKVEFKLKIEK

- potency compared to other proton pump inhibitors (PPIs) such as esomeprazole (clinical trials): improved potency
- duration of acid suppression as compared with other PPIs [1]: prolonged duration of acid suppression
- nocturnal acid breakthrough as compared with other PPIs [1]: shorter nocturnal acid breakthrough
Structure (SMILES): COc1ccc2[nH]c([S+]([O-])Cc3ncc(C)c(OC)c3C)nc2n1 (stereo not drawn) [tenatoprazole, 5-methoxy-2-(4-methoxy-3,5-dimethyl-pyridin-2-ylmethane-sulfinyl)-1H-imidazo[4,5-b]pyridine]
